Results from ChEMBL document CHEMBL1201862, “PubChem BioAssay data set” (2004).
Values joined by “and” are separate entries in the source; they are usually repeats but may differ in a detail not shown here. Equal values may be shown once.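 The compound was tested at five concentrations on cells cultured in 96-well plates, with a 48-hour exposure period. GI50 is the concentration that inhibits growth by half.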 Active and inactive are the calls of the source. Rule as the data show it: active = GI50 up to about 1.1 µM and inactive = higher.

What was measured:
Assay in all cases: NCI anticancer screen, dose series, 48 h
[1] = test system: BT-549
[2] = test system: DLD-1
[3] = test system: T47D
[4] = test system: HOP-18
[5] = test system: KM-20L2
[6] = test system: Hs-578T
[7] = test system: XF498
[8] = test system: DMS-273

| SMILES | GI50 [1] | GI50 [2] | GI50 [3] | GI50 [4] | GI50 [5] | GI50 [6] | GI50 [7] | GI50 [8] |
| --- | --- | --- | --- | --- | --- | --- | --- | --- |
| Cc1c(Cl)cccc1NC(=O)CC1Sc2ccccc2NC1=O (stereo not given) | 27 µM (inactive) | 35 µM (inactive) and 24.1 µM (inactive) | 25.5 µM (inactive) | 13.2 µM (inactive) and 15.1 µM (inactive) | 24.6 µM (inactive) and 22.4 µM (inactive) | 2.99 µM (inactive) | 22.9 µM (inactive) and 22.8 µM (inactive) | – |
| CC(=O)OCCN1c2ccccc2Sc2cnccc21 | > 10 µM (inactive) | – | > 10 µM (inactive) | – | – | – | – | – |
| Cc1nc(=O)[nH]c2s/c(=N/C3CCCCC3)n(C3CCCCC3)c(=O)c12 | – | – | > 100 µM (inactive) | – | – | – | – | – |
| NCCCc1nonc1C(=O)O | – | – | > 100 µM (inactive) | – | – | > 100 µM (inactive) | – | – |
| CC(=O)N1C(C(=O)NNc2ccccc2)CSC1c1ccccc1 (stereo not given) | > 100 µM (inactive) | – | 69.7 µM (inactive) | – | – | > 100 µM (inactive) | – | – |
| COC(=O)CCC1(O)C=CC(=O)C=C1 | 58.5 µM (inactive) | – | – | – | – | 29.4 µM (inactive) | – | – |
| CC1=NN(c2nc(N)nc(CBr)n2)C(C)(C)C1 | 11.8 µM (inactive) | – | 5.97 µM (inactive) | – | – | 13.9 µM (inactive) | – | – |
| CC1(C)S[C@H](c2ccccc2C(=O)O)N[C@@H]1CC(=O)O | – | > 100 µM (inactive) | – | > 100 µM (inactive) | – | – | – | > 100 µM (inactive) |
| CCC(=O)C(C(C)/C=C/CCSc1ccccc1)C(O)CCCCCC(=O)OC (stereo not given) | > 100 µM (inactive) | – | – | – | – | – | – | – |
| COC(=O)CCCC(=O)NC1=C(Nc2ccc(OC)cc2)C(=O)c2ccccc2C1=O | 19.5 µM (inactive) | – | 41.3 µM (inactive) | – | – | 22.8 µM (inactive) | – | – |
| O=C(/C=C/c1ccccc1Cl)c1ccccc1Cl | – | 17.5 µM (inactive) | – | 28.1 µM (inactive) | 18.1 µM (inactive) | – | – | 16.9 µM (inactive) |
| Cc1cn(C2CC(ON3C(=O)c4ccccc4C3=O)C(CO)O2)c(=O)[nH]c1=O (stereo not given) | > 10 µM (inactive) | – | – | – | – | > 10 µM (inactive) | – | – |
| CCCCC1=C(C(=O)N2CCOCC2)C2(OCCO2)C1Cl (stereo not given) | – | – | 46 µM (inactive) | – | – | 30.1 µM (inactive) | – | – |
| Cc1ccc(C(=O)N/N=C(\N=N\c2ccccc2)c2ccc(N(C)C)cc2)cc1 | > 100 µM (inactive) | – | – | – | – | – | – | – |
| C=C(C(=O)O)[C@@H]1C[C@@H]2O[C@H]1[C@@H](O)[C@@H](C)CCCC(C)=CCC[C@@]2(C)O | – | – | > 100 µM (inactive) and > 84.9 µM (inactive) | – | – | > 100 µM (inactive) | – | – |
| COC(=O)C1Cc2c([nH]c3ccccc23)C(c2ccccc2O)N1 (stereo not given) | – | 42.9 µM (inactive) | – | > 100 µM (inactive) | 95.5 µM (inactive) | – | – | 60.4 µM (inactive) |
| O=C(CC(C(=O)c1cccs1)c1ccsc1)c1ccsc1 (stereo not given) | 28.3 µM (inactive) | – | 30.6 µM (inactive) | – | – | 20.3 µM (inactive) | – | – |
| c1ccc(C2=NN3CN(N2)c2ccccc2OCCCOc2ccccc23)cc1 | – | – | – | – | > 100 µM (inactive) | – | > 100 µM (inactive) | > 100 µM (inactive) |
| CCOC(=O)c1c(N2CCOCC2)ncn(-c2cccc(Cl)c2)c1=O | > 100 µM (inactive) | – | > 100 µM (inactive) | – | – | > 100 µM (inactive) | – | – |
| O=c1c2cc(S(=O)(=O)Nc3ccccc3Cl)ccc2ncn1NS(=O)(=O)c1ccc(Br)cc1 | > 37.5 µM (inactive) | – | – | – | – | > 37.5 µM (inactive) | – | – |
| Cc1cc(OCc2nnc3n2N=C(c2cc(F)c(Cl)cc2Cl)/C(=C/c2ccc(Cl)cc2)S3)ccc1Cl | – | – | 20.4 µM (inactive) | – | – | 15.2 µM (inactive) | – | – |
| Nc1ncnc2c1ncn2CC(O)C(=O)O (stereo not given) | > 100 µM (inactive) | > 100 µM (inactive) | > 100 µM (inactive) | 71 µM (inactive) | > 100 µM (inactive) | > 100 µM (inactive) | – | > 100 µM (inactive) |
| COc1cccc(C2CC(C)(N3CCCC3)Oc3cc4c(cc32)OCO4)c1O (stereo not given) | 16.9 µM (inactive) | – | 30.8 µM (inactive) | – | – | 21.5 µM (inactive) | – | – |
| O=C(/C=C1\Nc2ccccc2C(=O)N1c1ccc(Cl)cc1)c1ccncc1 | – | > 100 µM (inactive) | – | – | > 100 µM (inactive) | – | 30.1 µM (inactive) | – |
| O=C(c1ccccc1)C1CCCCN1C(=O)c1ccccc1 (stereo not given) | – | > 100 µM (inactive) | – | > 100 µM (inactive) | > 100 µM (inactive) | – | – | > 100 µM (inactive) |
| Cc1ccc(S(=O)(=O)ON=C2CC(c3ccccc3)N(C)C(c3ccccc3)C2)cc1 (stereo not given) | – | – | – | – | 23 µM (inactive) and 18.4 µM (inactive) | – | – | 20.7 µM (inactive) and 19.5 µM (inactive) |
| Clc1ccc(C2=CC(c3ccccc3)N3C(=N[C@H]4CCCC[C@@H]43)N2)cc1 (stereo not given in full) | 9.12 µM (inactive) | – | 6.4 µM (inactive) | – | – | 3.12 µM (inactive) | – | – |
| N#CC1C(C#N)C2(c3ccccc3)C(c3ccccc3)=NN(c3ccccc3)CC12 (stereo not given) | – | > 100 µM (inactive) | – | > 100 µM (inactive) | > 100 µM (inactive) | – | > 100 µM (inactive) | > 100 µM (inactive) |
| Cn1c(O)c(C(=O)Nc2ccc([N+](=O)[O-])cc2)c(=O)n(C)c1=S | 1.17 µM (inactive) | 3.7 µM (inactive) | – | 2.84 µM (inactive) | 4.21 µM (inactive) | 0.617 µM (active) | – | – |
| CN(C)c1ccc(C2CC(c3ccc4ccccc4c3O)=NN2c2ccc([N+](=O)[O-])cc2[N+](=O)[O-])cc1 (stereo not given) | 91 µM (inactive) | – | 68.1 µM (inactive) | – | – | 48.8 µM (inactive) | – | – |
